Assay results published in paper PMC10216180, “Dopamine Receptor Ligand Selectivity—An In Silico/In Vitro Insight” (Biomedicines, 2023).
Entries after “also recorded” stand apart in the source; their conditions may differ. Where two headings read alike, the source gives them in different places. Marks after values point to notes of the source that are not given here.

Key:
D3R [1] = target: T1, D3R (Homo sapiens, UniProt P35462); set-up: method as in PMID 24061855, PMID 19331412; settings: R22 analogues, linker length; cited from earlier work
T1 sequence (P35462 whole entry): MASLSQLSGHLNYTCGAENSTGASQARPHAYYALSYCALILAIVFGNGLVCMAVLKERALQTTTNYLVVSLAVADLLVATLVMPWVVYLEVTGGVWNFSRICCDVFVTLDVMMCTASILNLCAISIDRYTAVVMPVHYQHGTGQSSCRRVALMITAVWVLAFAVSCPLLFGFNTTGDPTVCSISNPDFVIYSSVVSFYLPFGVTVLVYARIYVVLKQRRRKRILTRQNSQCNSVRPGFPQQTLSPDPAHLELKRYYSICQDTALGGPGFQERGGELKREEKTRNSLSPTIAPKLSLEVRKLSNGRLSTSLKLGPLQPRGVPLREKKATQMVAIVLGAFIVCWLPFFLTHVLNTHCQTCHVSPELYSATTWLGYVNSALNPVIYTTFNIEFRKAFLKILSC

D1R [2] = target: T2, D1R (Homo sapiens, UniProt P21728); assay: HTRF competitive binding screening (NDF) at D1R carrier cells; settings: 10 µM, n = 4, fluorescence decrease normalized to the control
T2 sequence (P21728 whole entry): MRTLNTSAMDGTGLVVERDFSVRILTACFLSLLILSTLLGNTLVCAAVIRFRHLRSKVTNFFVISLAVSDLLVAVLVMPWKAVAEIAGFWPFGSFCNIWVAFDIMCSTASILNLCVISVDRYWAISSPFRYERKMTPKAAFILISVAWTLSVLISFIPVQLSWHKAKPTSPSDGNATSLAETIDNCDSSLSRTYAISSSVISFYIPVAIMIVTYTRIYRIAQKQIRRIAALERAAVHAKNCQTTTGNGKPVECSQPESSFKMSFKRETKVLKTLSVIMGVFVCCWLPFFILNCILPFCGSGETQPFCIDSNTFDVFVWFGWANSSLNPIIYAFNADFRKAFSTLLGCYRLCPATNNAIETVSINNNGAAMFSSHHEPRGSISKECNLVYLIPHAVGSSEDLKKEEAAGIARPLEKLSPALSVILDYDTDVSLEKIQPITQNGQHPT
Description: (§1) All HTRF assays were performed using an HTRF-compatible plate reader (model Tecan Spark (Tecan Group, Männedorf, Switzerland)). The respective settings were specifically modified and optimized for the determination of D2R ligand-binding affinities. Binding affinities were determined using the same settings for measurements with D1R and D3R carrier cells. […] Fluorophores were excited at 320 nm. A dichroic 510 mirror was used, while lag and integration times of 100 and 400 µs were applied, respectively. Flashes were set to 75. Electronic gain was automatically optimized, while the z-position was optimized based on the well with the highest expected signal. […] The first plate was used to determine the gain and the z-position. Subsequently, the determined values were set manually for the second plate to enable direct comparison between the different plates.
(§2) The cells used for the subsequent screening and detailed investigation of D1R and D3R ligands were acquired from PerkinElmer/cisbio (Waltham, MA, USA; Tag-lite Dopamine D1 or D3a-labeled Cells, ready-to-use (transformed and labeled), 200 tests; C1TT1D1 and C1TT1D3A, respectively). The cells were stored in liquid nitrogen until further use. Fluorescent-labelled ligands (Dopamine D2 Receptor red antagonist Fluorescent Ligand (L0002RED), stored at −20 °C and Dopamine D1 Receptor green antagonist (L0031GRE), stored at −20 °C), assay buffer (5Xconcentrate Tag-lite Buffer (TLB), 100 mL, stored at +4 °C; LABMED), and 96-well plates (HTRF 96-well low-volume white plate; 66PL96005) required for the in vitro assay were also acquired from PerkinElmer/cisbio. The assay was conducted according to the standard operation protocol (SOP) available from PerkinElmer/cisbio. The 96-well plates were incubated at room temperature for 2 h. The 96-well plates were read as described in Section 2.10. The respective concentrations of the dilution series were performed in triplicates. In total, Kd determination was performed twice.
(§3) The investigated compounds were taken from a previous pharmacophore-based virtual screening study described in Zell et al.. The activities of all compounds were investigated via a competitive binding (in comparison with a fluorescence-labeled ligand) of the respective compounds at D1R/D3R, utilizing an HTRF assay using a screening concentration of 10 µM.

D2R [3] = target: T3, D2R (Homo sapiens, UniProt P14416); settings: 10 µM, n = 4, normalized to the control; cited from earlier work
T3 construct: expressed in transfected cells; host or cells: D2R carrier cells (not described here)
T3 sequence (P14416 whole entry): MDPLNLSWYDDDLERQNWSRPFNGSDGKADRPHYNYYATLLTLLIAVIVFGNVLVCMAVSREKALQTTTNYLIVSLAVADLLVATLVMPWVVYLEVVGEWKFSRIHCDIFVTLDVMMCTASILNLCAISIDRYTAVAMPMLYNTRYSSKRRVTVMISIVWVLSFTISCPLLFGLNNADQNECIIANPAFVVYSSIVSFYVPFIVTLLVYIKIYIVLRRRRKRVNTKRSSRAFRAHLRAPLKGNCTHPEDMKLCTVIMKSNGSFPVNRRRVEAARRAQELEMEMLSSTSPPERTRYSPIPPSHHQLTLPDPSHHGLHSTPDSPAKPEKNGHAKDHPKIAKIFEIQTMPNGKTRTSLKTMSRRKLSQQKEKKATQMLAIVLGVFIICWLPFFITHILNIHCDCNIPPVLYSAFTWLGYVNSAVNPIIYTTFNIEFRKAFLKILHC

D3R [4] = target: T1, D3R; assay: HTRF competitive binding screening (NDF) at D3R carrier cells; settings: 10 µM, n = 4, fluorescence decrease normalized to the control
Description: as §1, §2, §3

D3R [5] = target: T1, D3R; assay: HTRF Ki determination at D3R; assay type: binding; settings: for Selectivity D1R/D3R (Ki fold-difference) / Selectivity D2R/D3R (Ki fold-difference): Ki assumed ≥100 µM where n.d.
Description: as §1
The cells used for the subsequent screening and detailed investigation of D1R and D3R ligands were acquired from PerkinElmer/cisbio (Waltham, MA, USA; Tag-lite Dopamine D1 or D3a-labeled Cells, ready-to-use (transformed and labeled), 200 tests; C1TT1D1 and C1TT1D3A, respectively). The cells were stored in liquid nitrogen until further use. […] The assay was conducted according to the standard operation protocol (SOP) available from PerkinElmer/cisbio. The 96-well plates were incubated at room temperature for 2 h. The 96-well plates were read as described in Section 2.10. The respective concentrations of the dilution series were performed in triplicates. In total, Kd determination was performed twice.
(§4) The Ki was determined in duplicates following the SOP available from PerkinElmer/cisbio and as described in Section 2.10.
(§5) Saturation binding curves were processed and visualized in GraphPad Prism 8 (Nonlinear regression (curve fit), One site—Fit logIC50 was performed using GraphPad Prism version 8.2.1 for Windows, GraphPad Software, San Diego. CA, USA). Molecular docking was performed in GOLD 5.8.0 (CCDC, Cambridge, United Kingdom). […] Two-dimensional structures of all shown compounds were generated using ChemDraw version 19.0 (PerkinElmer, Waltham, MA, USA).

D2R [6] = target: T3, D2R; assay: HTRF Ki determination at D2R; assay type: binding; settings: for Selectivity D1R/D2R (Ki fold-difference): Ki assumed ≥100 µM where n.d.
Description: as §1
The characterization of the D2R carrier cells is detailed in [42].
as §4, §5

D1R [7] = target: T2, D1R; assay: HTRF Ki determination at D1R; assay type: binding; settings: n = 6, ± SD; n.d. = not determinable (highest concentration 100 µM)
Description: as §1, §2, §4, §5

D2R [8] = target: T3, D2R; set-up: method as in PMID 35889317; settings: n = 6, ± SD; values from previous experiments; cited from earlier work
D3R [9] = settings: radio-ligand binding, cited from earlier work
D1R [10] = settings: radio-ligand binding, cited from earlier work
D2R [11] = settings: radio-ligand binding, cited from earlier work
[12] = n = 6, ± SD, n.d. = not determinable (highest concentration 100 µM)
[13] = Table S3 D2like-selective dataset, ref ChEMBL [56,69,72-106]
[14] = Table S4 D3R-selective dataset, ref ChEMBL [53,56,62-118]

Molecule | Normalized Decrease in Fluorescence (NDF) ± SD, D1R (D1R [2]) | Normalized Decrease in Fluorescence (NDF) ± SD, D2R (D2R [3]) | Normalized Decrease in Fluorescence (NDF) ± SD, D3R (D3R [4]) | Selectivity D1R/D3R (Ki fold-difference) (D3R [5]) | Selectivity D2R/D3R (Ki fold-difference) (D3R [5]) | Ki (D3R [5]; n = 6, ± SD) [µM] | Selectivity D1R/D2R (Ki fold-difference) (D2R [6]) | Ki (D1R [7]) [µM] | Ki (D2R [8]) [µM] | also measured
O=C(NCCCCN1CCN(c2cccc(Cl)c2Cl)CC1)c1cc2ccccc2[nH]1 [C4 analogue] | – | – | – | – | – | – | – | – | – | D2R/D3R-selectivity fold-difference (D3R [1]): 45.7
CN1CCc2cccc3c2[C@H]1Cc1ccc(O)c(O)c1-3 [Compound 1, apomorphine, reference compound] | 3.47 ± 1.04 | 9.44 ± 5.97 | 3.82 ± 1.32 | – | – | – | – | – | – | –
CN1CCN(C2Cc3ccc(O)cc3Sc3ccc(Cl)cc32)CC1 (centres unmarked) [Compound 2] | 5.46 ± 1.97 | 40.41 ± 1.39 | 4.16 ± 1.08 | 3.23 | 1.66 | 0.003 ± 0.001 | 1.95 | 0.009 ± 0.002 | 0.005 ± 0.002 | –
NS(=O)(=O)c1ccc(CCNCc2ccc(-c3cc(Cl)ccc3Cl)o2)cc1 [Compound 3] | 1.78 ± 1.35 | 3.99 ± 2.58 | 3.96 ± 1.10 | – | 12.2 | 0.38 ± 0.022 | >21.4 ^b | – | 4.66 ± 2.69 | Ki D1R (D1R [7]): inactive
Oc1cccc(C(O)CNCc2cccc(Cl)c2Cl)c1 (centres unmarked) [Compound 4] | 0.90 ± 0.31 | 0.90 ± 0.39 | 2.75 ± 0.61 | >27.2 ^b | >27.2 ^b | 3.68 ± 0.94 | – | – | – | Ki D2R (D2R [6]; [12]): inactive; also recorded: no determinable binding affinity; also recorded: no determinable binding affinities; Ki D1R (D1R [7]): inactive; also recorded: no determinable binding affinity; also recorded: no determinable binding affinities
CCN(CCC(=O)Nc1cccc(OC)c1)Cc1ccccc1 [Compound 5] | 1.26 ± 0.64 | 15.74 ± 18.15 | 2.65 ± 0.64 | 20.8 | 4.86 | 2.25 ± 0.91 | 4.28 | 46.9 ± 27.4 | 11 ± 4.43 | –
O=C(CCN1CCN(c2ccccc2F)CC1)Nc1cccc(F)c1 [Compound 6] | 2.15 ± 1.16 | 8.18 ± 3.62 | 4.21 ± 0.79 | 20.7 | 3.56 | 0.37 ± 0.28 | 5.77 | 7.76 ± 4.41 | 1.35 ± 0.63 | –
O[C@H](CNCCNc1ccc(C(F)(F)F)cn1)CSc1ccc(F)cc1 [Compound 7] | 1.57 ± 0.54 | 10.85 ± 4.93 | 3.79 ± 0.70 | 12.3 | 4.11 | 0.68 ± 0.068 | 3.00 | 8.33 ± 2.17 | 2.78 ± 1.06 | –
COc1cc(CC[C@H](C)NCc2ccccc2)ccc1O [Compound 8] | 1.20 ± 0.59 | 1.10 ± 0.52 | 2.63 ± 0.52 | >43.1 ^b | >43.1 ^b | 2.32 ± 0.92 | – | – | – | Ki D2R (D2R [6]; [12]): inactive; also recorded: no determinable binding affinity; also recorded: no determinable binding affinities; Ki D1R (D1R [7]): inactive; also recorded: no determinable binding affinity; also recorded: no determinable binding affinities
NC(=O)c1ccccc1OCCCN1CCN(c2ccccc2)CC1 [Compound 9] | 1.71 ± 0.86 | 22.08 ± 6.62 | 3.97 ± 0.78 | 395.1 | 13.8 | 0.024 ± 0.003 | 28.6 | 9.46 ± 1.18 | 0.33 ± 0.093 | –
COc1ccccc1N1CCN(CCCCNC(=O)c2ccc(Cl)cc2)CC1 [Compound 10] | 2.59 ± 1.04 | 22.89 ± 8.41 | 4.09 ± 1.07 | 1031.4 | 263.7 | 0.002 ± 0.001 | 3.91 | 2.38 ± 0.13 | – | Ki (D3R [5]): 0.0023 µM; Ki (D2R [6]; [12]): 0.61 ± 0.085 µM
SC79 | – | – | – | – | – | – | – | – | – | Ki (D3R [9]; [13]): 0.00611 µM; Ki (D1R [10]; [13]): 10 µM; Ki (D2R [11]; [13]): 0.622 µM
SC144 | – | – | – | – | – | – | – | – | – | Ki (D3R [9]; [13]): 0.003 µM; Ki (D1R [10]; [13]): 1.3 µM; Ki (D2R [11]; [13]): 0.038 µM
SC236 | – | – | – | – | – | – | – | – | – | Ki (D3R [9]; [14]): 0.214 µM; Ki (D1R [10]; [14]): 1.27 µM; Ki (D2R [11]; [14]): 2.32 µM
